Laboratory results as given in patent US20180265804A1 (priority 2015, published 2018).

Experiments:
Clostridium perfringens [1] = assay type: cell-based; conditions: strain of avian origin
Salmonella Typhimurium [2] = assay type: cell-based
Clostridium perfringens [3] = assay type: cell-based; conditions: strain of avian origin, 10^6 cfu/ml, 37° C. for 24 hours, anaerobiosis
Escherichia coli [4] = assay type: cell-based
Salmonella Typhimurium [5] = assay type: cell-based; remark: listed apart in the source
Escherichia coli [6] = assay type: cell-based; remark: listed apart in the source
Solubility in water = assay type: physicochemical; conditions: for solubility: water, at 25° C.
Salmonella Enteritidis [7] = assay type: cell-based
Salmonella Enteritidis [8] = assay type: cell-based; remark: listed apart in the source

For `Cc1ccc(C(C)C)c(O)c1` [Thymol, reference compound], which MBC (Clostridium perfringens [1]) is on record?
Its MBC is at most 0.093%.

What about the MIC (Salmonella Typhimurium [2]) of the same molecule?
Its MIC is at most 0.093%.

What about the MIC (Clostridium perfringens [3]) of the same molecule?
The MIC was at most 0.093%.

And the MBC (Escherichia coli [4])?
The MBC was at most 0.093%.

And the MBC (Salmonella Typhimurium [5])?
The MBC was at most 0.093%.

And the MIC (Escherichia coli [6])?
Its MIC is at most 0.093%.

With `CCCCCCCCCCCC(=O)OC1CC(C)CCC1C(C)C` (stereo not shown) [IB579, Menthol Laurate] as the molecule, how does the MBC (Clostridium perfringens [1]) read?
Its MBC is over 10%.

And the MIC (Salmonella Typhimurium [2])?
Its MIC is over 10%.

And the MIC (Clostridium perfringens [3])?
The MIC was over 10%.

What about the MBC (Escherichia coli [4]) of the same molecule?
The MBC was over 10%.

What about the MBC (Salmonella Typhimurium [5]) of the same molecule?
The MBC was over 10%.

And the MIC (Escherichia coli [6])?
The MIC was over 10%.

Which results are given for `Cc1ccc(C(C)C)cc1O` [Carvacrol, reference compound]?
MBC (Clostridium perfringens [1]): ≤0.093%; MIC (Salmonella Typhimurium [2]): 0.375%; MIC (Clostridium perfringens [3]): ≤0.093%; Solubility in water (Solubility in water; result in words): INSOLUBLE; MBC (Escherichia coli [4]): ≤0.093%; MBC (Salmonella Typhimurium [5]): 0.375%; MIC (Escherichia coli [6]): ≤0.093%

With `CCCCCCCCCCCC(=O)Oc1cc(C)ccc1C(C)C` [IB570, Thymol Laurate] as the molecule, how does the MBC (Clostridium perfringens [1]) read?
The MBC was over 10%.

And the MIC (Salmonella Typhimurium [2])?
Its MIC is over 10%.

What about the MIC (Clostridium perfringens [3]) of the same molecule?
Its MIC is over 10%.

What about the MBC (Escherichia coli [4]) of the same molecule?
Its MBC is over 10%.

And the MBC (Salmonella Typhimurium [5])?
The MBC was over 10%.

What about the MIC (Escherichia coli [6]) of the same molecule?
The MIC was over 10%.

Which MBC (Clostridium perfringens [1]) does the source give for `Cc1ccc(C(C)C)c(OC(=O)CCC(=O)Oc2cc(C)ccc2C(C)C)c1` [Succinate] here?
The MBC was at most 0.093%.

And the MIC (Salmonella Typhimurium [2])?
The MIC was at most 0.093%.

And the MIC (Clostridium perfringens [3])?
Its MIC is at most 0.093%.

What about the MBC (Escherichia coli [4]) of the same molecule?
The MBC was at most 0.093%.

And the MBC (Salmonella Typhimurium [5])?
The MBC was at most 0.093%.

And the MIC (Escherichia coli [6])?
The MIC was at most 0.093%.

For `Cc1cc(S(=O)(=O)O)c(C(C)C)cc1O` [IB540, Carvacrol Sulfonic Acid], which MBC (Clostridium perfringens [1]) is on record?
Its MBC is 0.75%.

What about the MIC (Salmonella Typhimurium [2]) of the same molecule?
The MIC was 0.75%.

What about the MBC (Salmonella Enteritidis [7]) of the same molecule?
The MBC was 0.312%.

And the MIC (Clostridium perfringens [3])?
Its MIC is 0.375%.

And the MBC (Escherichia coli [4])?
Its MBC is 0.75%.

What about the MIC (Salmonella Enteritidis [8]) of the same molecule?
Its MIC is 0.312%.

What about the MBC (Salmonella Typhimurium [5]) of the same molecule?
Its MBC is 0.75%.

And the MIC (Escherichia coli [6])?
Its MIC is 0.75%.

Which MBC (Clostridium perfringens [1]) does the source give for `Cc1cc(S(=O)(=O)[O-])c(C(C)C)cc1O.[K+]` [IB546, Carvacrol Sulfonate Potassium Salt] here?
Its MBC is 0.75%.

And the MIC (Salmonella Typhimurium [2])?
Its MIC is 1.25%.

What about the MBC (Salmonella Enteritidis [7]) of the same molecule?
Its MBC is 1.25%.

What about the melting point of the same molecule?
The melting point was > 270 °C (dec.).

What about the MIC (Clostridium perfringens [3]) of the same molecule?
The MIC was 0.375%.

And the solubility (Solubility in water)?
The solubility was about 250 mg/mL.

And the MBC (Escherichia coli [4])?
Its MBC is 5%.

And the MIC (Salmonella Enteritidis [8])?
The MIC was 1.25%.

What about the MBC (Salmonella Typhimurium [5]) of the same molecule?
Its MBC is 1.25%.

What about the MIC (Escherichia coli [6]) of the same molecule?
Its MIC is 5%.

For `Cc1cc(O)c(C(C)C)cc1S(=O)(=O)O` [IB574, Thymol Sulfonic Acid], which MBC (Clostridium perfringens [1]) is on record?
Its MBC is 0.375%.

What about the MIC (Salmonella Typhimurium [2]) of the same molecule?
Its MIC is 0.375%.

What about the MBC (Salmonella Enteritidis [7]) of the same molecule?
The MBC was 0.625%.

What about the MIC (Clostridium perfringens [3]) of the same molecule?
Its MIC is 0.375%.

What about the MBC (Escherichia coli [4]) of the same molecule?
Its MBC is 0.75%.

What about the MIC (Salmonella Enteritidis [8]) of the same molecule?
The MIC was 0.625%.

And the MBC (Salmonella Typhimurium [5])?
Its MBC is 0.375%.

And the MIC (Escherichia coli [6])?
The MIC was 0.75%.

With `CCCCCCCCCCCC(=O)Oc1cc(C(C)C)ccc1C` [IB536, Carvacrol Laurate] as the molecule, how does the MBC (Clostridium perfringens [1]) read?
Its MBC is over 10%.

And the MIC (Salmonella Typhimurium [2])?
The MIC was over 10%.

What about the MIC (Clostridium perfringens [3]) of the same molecule?
Its MIC is over 10%.

And the MBC (Escherichia coli [4])?
Its MBC is over 10%.

What about the MBC (Salmonella Typhimurium [5]) of the same molecule?
The MBC was over 10%.

What about the MIC (Escherichia coli [6]) of the same molecule?
The MIC was over 10%.

Which results are given for `Cc1cc(O)c(C(C)C)cc1S(=O)(=O)[O-].[K+]` [IB575, Thymol Sulfonate Potassium Salt]?
MBC (Clostridium perfringens [1]): 2.5%; MIC (Salmonella Typhimurium [2]): 5%; MIC (Clostridium perfringens [3]): 1.25%; solubility (Solubility in water): ~190 mg/mL; MBC (Escherichia coli [4]): 2.5%; MBC (Salmonella Typhimurium [5]): 5%; MIC (Escherichia coli [6]): 2.5%
